According to ChEMBL document CHEMBL5325400 (Eur J Med Chem, 2023):

Columns and labels:
Format in all cases: functional, cell-based
[1] = test system: HeLa; test: Antiproliferative activity against human HeLa cells assessed as inhibition of cell growth measured after 48 hrs by MTT assay
[2] = test system: HepG2; test: Antiproliferative activity against human HepG2 cells assessed as inhibition of cell growth measured after 48 hrs by MTT assay; conditions: HepG2, 48 h
[3] = test system: MDA-MB-231; test: Antiproliferative activity against human MDA-MB-231 cells assessed as inhibition of cell growth measured after 48 hrs by MTT assay; conditions: MDA-MB-231, 48 h
[4] = test system: B16-F10; test: Antiproliferative activity against mouse B16-F10 cells assessed as inhibition of cell growth measured after 48 hrs by MTT assay; conditions: B16-F10, 48 h
[5] = test system: A549; test: Antiproliferative activity against human A549 cells assessed as inhibition of cell growth measured after 48 hrs by MTT assay; conditions: A549, 48 h
[6] = test system: SK-OV-3; test: Antiproliferative activity against human SK-OV-3 cells assessed as inhibition of cell growth measured after 48 hrs by MTT assay; conditions: SK-OV-3, 48 h

| Structure (SMILES) | IC50 [1] [nM] | IC50 [2] [nM] | IC50 [3] [nM] | IC50 [4] [nM] | IC50 [5] [nM] | IC50 [6] [nM] |
| --- | --- | --- | --- | --- | --- | --- |
| COc1cccc(Nc2nc(Nc3cccc(NC(=O)C4CC4)c3)c3sccc3n2)c1 | > 1000 | > 1000 | > 1000 | > 1000 | > 1000 | > 1000 |
| O=C(Nc1cccc(Nc2cc(Nc3cccc(C(F)F)c3)ncn2)c1)C1CC1 | 48.5 | 15.6 | 38.7 | 61.3 | 9.3 | 2.1 |
| Cc1cc(NC(=O)C2CC2)cc(Nc2cc(Nc3cccc(C(F)(F)F)c3)ncn2)c1 | 499 | 201 | > 1000 | 443 | > 1000 | 31.7 |
| O=C(Nc1cncc(Nc2cc(Nc3cccc(C(F)(F)F)c3)ncn2)c1)C1CC1 | > 1000 | > 1000 | > 1000 | > 1000 | > 1000 | > 1000 |
| O=C(Nc1cccc(Nc2nc(Nc3cccc(C(F)(F)F)c3)nc3ccccc23)c1)C1CC1 | > 1000 | > 1000 | > 1000 | > 1000 | > 1000 | > 1000 |
| CCC(=O)Nc1cccc(Nc2cc(Nc3cccc(OC)c3)ncn2)c1 | 6.7 | 99.3 | > 1000 | 392 | 273 | 14.1 |
| COc1cccc(Nc2cc(Nc3cccc(OC)c3)ncn2)c1 | > 1000 | > 1000 | > 1000 | > 1000 | > 1000 | > 1000 |
| COc1cccc(Nc2cc(Nc3cccc(NC(=O)C(C)C)c3)ncn2)c1 | > 1000 | > 1000 | 644 | > 1000 | 299 | 41.1 |
| Cc1cccc2c1CCN2c1cc(Nc2cccc(NC(=O)C3CC3)c2)ncn1 | > 1000 | > 1000 | > 1000 | > 1000 | > 1000 | > 1000 |
| COc1cccc(Nc2cc(Nc3cccc(NC(=O)C4CC4)c3)ncn2)c1F | 45.7 | 313 | 31.4 | 181 | 4.8 | 26.8 |
| COc1cccc(Nc2nc(Nc3cccc(NC(=O)C4CC4)c3)c3ccccc3n2)c1 | > 1000 | > 1000 | > 1000 | > 1000 | > 1000 | > 1000 |
| COc1cccc(Nc2cc(Nc3cccc(NC(=O)C4CCCCC4)c3)ncn2)c1 | 52.5 | 166 | > 1000 | 315 | 83.2 | 23.6 |
| COc1cccc(Oc2cc(Nc3cccc(NC(=O)C4CC4)c3)ncn2)c1 | 475 | 22.8 | 155 | 83.9 | 68.3 | 68.6 |
| Cc1c(F)cccc1Nc1cc(Nc2cccc(NC(=O)C3CC3)c2)ncn1 | 62.2 | 429 | 23.4 | 17.8 | 27.9 | 31.6 |
| O=C(Nc1cccc(Nc2cc(N3CCc4c3cccc4C(F)(F)F)ncn2)c1)C1CC1 | > 1000 | > 1000 | > 1000 | > 1000 | > 1000 | > 1000 |
| COc1cc(Nc2cc(Nc3cccc(NC(=O)C4CC4)c3)ncn2)ccc1F | 65.9 | 342 | 107 | 199 | 218 | 42.7 |
| Cc1nc(Nc2cccc(NC(=O)C3CC3)c2)cc(Nc2cccc(C(F)(F)F)c2)n1 | > 1000 | 64.1 | > 1000 | 562 | > 1000 | 123 |
| COc1cccc(Nc2cc(Nc3cccc(C(=O)NC4CCCCC4)c3)ncn2)c1 | > 1000 | > 1000 | > 1000 | > 1000 | > 1000 | > 1000 |
| O=C(Nc1cccc(Nc2nc(Nc3cccc(C(F)(F)F)c3)nc3ccsc23)c1)C1CC1 | > 1000 | > 1000 | > 1000 | > 1000 | > 1000 | > 1000 |
| COc1cccc(Nc2cc(Nc3cccc(NC(=O)C4CCCC4)c3)ncn2)c1 | 41.5 | 158 | 105 | > 1000 | 198 | 9.6 |
| COc1cccc(Nc2nc(Nc3cccc(NC(=O)C4CC4)c3)nc3ccccc23)c1 | > 1000 | > 1000 | 122 | 172 | > 1000 | 864 |
| CCOc1cccc(Nc2cc(Nc3cccc(NC(=O)C4CC4)c3)ncn2)c1 | 613 | 128 | 1.9 | 20.7 | 173 | 17.4 |

| Structure (SMILES) | IC50 [1] [nM] | IC50 [2] [nM] | IC50 [3] [nM] | IC50 [4] [nM] | IC50 [5] [nM] | IC50 [6] [nM] |
| --- | --- | --- | --- | --- | --- | --- |
| CCc1cccc(Nc2cc(Nc3cccc(NC(=O)C4CC4)c3)ncn2)c1 | 3.2 | 314 | 3.1 | 46.6 | 23.4 | 1.9 |
| O=C(Nc1cccc(Nc2nc(Nc3cccc(C(F)(F)F)c3)c3ccccc3n2)c1)C1CC1 | > 1000 | > 1000 | > 1000 | > 1000 | > 1000 | > 1000 |
| COc1cccc(Nc2cc(Nc3cccc(NS(=O)(=O)C4CCCCC4)c3)ncn2)c1 | > 1000 | > 1000 | > 1000 | > 1000 | > 1000 | 286 |
| COc1nc(Nc2cccc(NC(=O)C3CC3)c2)cc(Nc2cccc(C(F)(F)F)c2)n1 | > 1000 | > 1000 | > 1000 | > 1000 | > 1000 | > 1000 |
| COc1cccc(Nc2nc(Nc3cccc(NC(=O)C4CC4)c3)nc3ccsc23)c1 | > 1000 | > 1000 | 610 | > 1000 | > 1000 | > 1000 |
| COc1cccc(Nc2cc(Nc3cccc(C(=O)NC4CC4)c3)ncn2)c1 | > 1000 | > 1000 | > 1000 | > 1000 | > 1000 | > 1000 |
| COc1cccc(Nc2cc(Nc3cccc(C(=O)NC4CCCC4)c3)ncn2)c1 | > 1000 | > 1000 | > 1000 | > 1000 | > 1000 | > 1000 |
| COc1cccc(Nc2cc(Nc3cccc(NC(=O)C(C)(C)C)c3)ncn2)c1 | > 1000 | > 1000 | > 1000 | > 1000 | > 1000 | > 1000 |
| O=C(NCCCNc1cc(Nc2cccc(C(F)(F)F)c2)ncn1)C1CC1 | > 1000 | > 1000 | > 1000 | > 1000 | > 1000 | > 1000 |
| COc1cc(Nc2cc(Nc3cccc(NC(=O)C4CC4)c3)ncn2)ccc1Cl | 397 | 374 | 356 | 472 | 547 | 811 |
| O=C(Nc1cccc(Nc2nc(Nc3cccc(C(F)(F)F)c3)c3sccc3n2)c1)C1CC1 | > 1000 | > 1000 | > 1000 | > 1000 | > 1000 | > 1000 |
| COc1cccc(Nc2cc(Nc3cccc(NS(=O)(=O)C4CC4)c3)ncn2)c1 | 130 | 284 | 438 | 54.2 | 81.6 | 56.8 |
| COc1cccc(Nc2nc(Nc3cccc(NC(=O)C4CC4)c3)c3ccsc3n2)c1 | > 1000 | > 1000 | > 1000 | > 1000 | > 1000 | > 1000 |
| COc1cccc(Nc2nc(Nc3cccc(NC(=O)C4CC4)c3)nc3sccc23)c1 | > 1000 | > 1000 | > 1000 | > 1000 | > 1000 | > 1000 |
| COc1cccc(Nc2cc(Nc3cccc(NC(=O)C4CC4)c3)nc(C)n2)c1 | 120 | 93.2 | > 1000 | 9.6 | > 1000 | 156 |
| COc1cccc(Nc2cc(Nc3ccc(NC(=O)C4CC4)cc3)ncn2)c1 | > 1000 | > 1000 | > 1000 | > 1000 | > 1000 | > 1000 |
| O=C(Nc1cccc(Nc2cc(N3CCc4ccccc43)ncn2)c1)C1CC1 | > 1000 | > 1000 | > 1000 | > 1000 | > 1000 | > 1000 |
| COc1ccc(C)c(Nc2cc(Nc3cccc(NC(=O)C4CC4)c3)ncn2)c1 | 17.9 | 35.2 | 48.8 | 2.3 | 2 | 56.9 |
| CC(=O)c1cccc(Nc2cc(Nc3cccc(NC(=O)C4CC4)c3)ncn2)c1 | 22.5 | 127 | 64.9 | 167 | 509 | 31.6 |
| O=C(Nc1cccc(Nc2cc(N3CCOc4ccccc43)ncn2)c1)C1CC1 | 349 | 34.8 | 563 | > 1000 | > 1000 | 84.2 |
| O=C(Nc1cccc(Nc2nc(Nc3cccc(C(F)(F)F)c3)nc3sccc23)c1)C1CC1 | > 1000 | > 1000 | > 1000 | > 1000 | > 1000 | > 1000 |
